# Results published in patent US20050142581A1, “Microrna as ligands and target molecules” (priority 2003, published 2005).
# Oligonucleotides are written 5' to 3', each unit as a sugar letter and its base; * is a phosphorothioate linkage, no mark a phosphodiester; rarer units and linkages stand in square brackets, end groups in braces. Plain capitals give the bases only. d = 2'-deoxy (DNA)
# Tested on: human CD40 mRNA
# Experiment: Inhibition of CD40 mRNA levels by oligonucleotides (real-time RT-PCR)
# Format: cell-based
# Set-up: concentration or dose not given beside the values
# Conditions: oligodeoxynucleotides with phosphorothioate backbones throughout; averages from three experiments
# Description: When cells reach about 80% confluency, they are treated with oligonucleotide. For cells grown in 96-well plates, wells are washed once with 200 μl Opti-MEM-1 reduced-serum medium (Life Technologies) and then treated with 130 μl of Opti-MEM-1 containing 3.75 μg/ml LIPOFECTIN (Life Technologies) and the desired oligonucleotide at a final concentration of 150 nM. After 4 hours of treatment, the medium was replaced with fresh medium. Cells were harvested 16 hours after oligonucleotide treatment.
# Poly(A)+ mRNA was isolated according to Miura et al. (Clin. Chem., 1996, 42, 1758). Briefly, for cells grown on 96-well plates, growth medium was removed from the cells and each well was washed with 200 ul cold PBS. 60 ul lysis buffer (10 mM Tris-HCl, pH 7.6, 1 mM EDTA, 0.5 M NaCl, 0.5% NP-40, 20 mM vanadyl-ribonucleoside complex) was added to each well, the plate was gently agitated and then incubated at room temperature for five minutes. 55 ul of lysate was transferred to Oligo d(T) coated 96 well plates (AGCT Inc., Irvine, Calif.). Plates were incubated for 60 minutes at room temperature, washed 3 times with 200 ul of wash buffer (10 mM Tris-HCl pH 7.6, 1 mM EDTA, 0.3 M NaCl). After the final wash, the plate was blotted on paper towels to remove excess wash buffer and then air-dried for 5 minutes. 60 ul of elution buffer (5 mM Tris-HCl pH 7.6), preheated to 70° C. was added to each well, the plate was incubated on a 90° hot plate for 5 minutes, and the eluate then transferred to a fresh 96 well plate. Cells grown on 100 mm or other standard plates may be treated similarly, using appropriate volumes of all solutions.
# Quantitation of CD40 mRNA levels was determined by real-time PCR (RT-PCR) using the ABI PRISM 7700 Sequence Detection System (PE-Applied Biosystems, Foster City, Calif.) according to manufacturer's instructions. This is a closed-tube, non-gel-based, fluorescence detection system which allows high-throughput quantitation of polymerase chain reaction (PCR) products in real-time.
# As opposed to standard PCR, in which amplification products are quantitated after the PCR is completed, products in RT-PCR are quantitated as they accumulate. This is accomplished by including in the PCR reaction an oligonucleotide probe that anneals specifically between the forward and reverse PCR primers, and contains two fluorescent dyes. A reporter dye (e.g., JOE or FAM, PE-Applied Biosystems, Foster City, Calif.) is attached to the 5′ end of the probe and a quencher dye (e.g., TAMRA, PE-Applied Biosystems, Foster City, Calif.) is attached to the 3′ end of the probe. When the probe and dyes are intact, reporter dye emission is quenched by the proximity of the 3′ quencher dye. During amplification, annealing of the probe to the target sequence creates a substrate that can be cleaved by the 5′-exonuclease activity of Taq polymerase.
# With each cycle, additional reporter dye molecules are cleaved from their respective probes, and the fluorescence intensity is monitored at regular (six-second) intervals by laser optics built into the ABI PRISM 7700 Sequence Detection System. In each assay, a series of parallel reactions containing serial dilutions of mRNA from untreated control samples generates a standard curve that is used to quantitate the percent inhibition after antisense oligonucleotide treatment of test samples.
# RT-PCR reagents were obtained from PE-Applied Biosystems, Foster City, Calif. RT-PCR reactions were carried out by adding 25 ul PCR cocktail (1× Taqman buffer A, 5.5 mM MgCl2, 300 uM each of dATP, dCTP and dGTP, 600 uM of dUTP, 100 nM each of forward primer, reverse primer, and probe, 20 U RNAse inhibitor, 1.25 units AmpliTaq Gold, and 12.5 U MuLV reverse transcriptase) to 96 well plates containing 25 ul poly(A) mRNA solution. […]
row,Substance,% INHIB. (Inhibition of CD40 mRNA Levels by Phosphorothioate Oligodeoxynucleotides)
1,18623 (DNA dC*dC*dA*dG*dG*dC*dG*dG*dC*dA*dG*dG*dA*dC*dC*dA*dC*dT; antisense) [compound 18623],30.71%
2,18624 (DNA dG*dA*dC*dC*dA*dG*dG*dC*dG*dG*dC*dA*dG*dG*dA*dC*dC*dA; antisense) [compound 18624],28.09%
3,18625 (DNA dA*dG*dG*dT*dG*dA*dG*dA*dC*dC*dA*dG*dG*dC*dG*dG*dC*dA; antisense) [compound 18625],21.89%
4,18626 (DNA dC*dA*dG*dA*dG*dG*dC*dA*dG*dA*dC*dG*dA*dA*dC*dC*dA*dT; antisense) [compound 18626],0.00%
5,18627 (DNA dG*dC*dA*dG*dA*dG*dG*dC*dA*dG*dA*dC*dG*dA*dA*dC*dC*dA; antisense) [compound 18627],0.00%
6,18628 (DNA dG*dC*dA*dA*dG*dC*dA*dG*dC*dC*dC*dC*dA*dG*dA*dG*dG*dA; antisense) [compound 18628],0.00%
7,18629 (DNA dG*dG*dT*dC*dA*dG*dC*dA*dA*dG*dC*dA*dG*dC*dC*dC*dC*dA; antisense) [compound 18629],29.96%
8,18630 (DNA dG*dA*dC*dA*dG*dC*dG*dG*dT*dC*dA*dG*dC*dA*dA*dG*dC*dA; antisense) [compound 18630],0.00%
9,18631 (DNA dG*dA*dT*dG*dG*dA*dC*dA*dG*dC*dG*dG*dT*dC*dA*dG*dC*dA; antisense) [compound 18631],0.00%
10,18632 (DNA dT*dC*dT*dG*dG*dA*dT*dG*dG*dA*dC*dA*dG*dC*dG*dG*dT*dC; antisense) [compound 18632],0.00%
11,18633 (DNA dG*dG*dT*dG*dG*dT*dT*dC*dT*dG*dG*dA*dT*dG*dG*dA*dC*dA; antisense) [compound 18633],0.00%
12,18634 (DNA dG*dT*dG*dG*dG*dT*dG*dG*dT*dT*dC*dT*dG*dG*dA*dT*dG*dG; antisense) [compound 18634],0.00%
13,18635 (DNA dG*dC*dA*dG*dT*dG*dG*dG*dT*dG*dG*dT*dT*dC*dT*dG*dG*dA; antisense) [compound 18635],0.00%
14,18636 (DNA dC*dA*dC*dA*dA*dA*dG*dA*dA*dC*dA*dG*dC*dA*dC*dT*dG*dA; antisense) [compound 18636],0.00%
15,18637 (DNA dC*dT*dG*dG*dC*dA*dC*dA*dA*dA*dG*dA*dA*dC*dA*dG*dC*dA; antisense) [compound 18637],0.00%
16,18638 (DNA dT*dC*dC*dT*dG*dG*dC*dT*dG*dG*dC*dA*dC*dA*dA*dA*dG*dA; antisense) [compound 18638],0.00%
17,18639 (DNA dC*dT*dG*dT*dC*dC*dT*dG*dG*dC*dT*dG*dG*dC*dA*dC*dA*dA; antisense) [compound 18639],4.99%
18,18640 (DNA dC*dT*dC*dA*dC*dC*dA*dG*dT*dT*dT*dC*dT*dG*dT*dC*dC*dT; antisense) [compound 18640],0.00%

row,Substance,% INHIB. (Inhibition of CD40 mRNA Levels by Phosphorothioate Oligodeoxynucleotides)
1,18641 (DNA dT*dC*dA*dC*dT*dC*dA*dC*dC*dA*dG*dT*dT*dT*dC*dT*dG*dT; antisense) [compound 18641],0.00%
2,18642 (DNA dG*dT*dG*dC*dA*dG*dT*dC*dA*dC*dT*dC*dA*dC*dC*dA*dG*dT; antisense) [compound 18642],0.00%
3,18643 (DNA dA*dC*dT*dC*dT*dG*dT*dG*dC*dA*dG*dT*dC*dA*dC*dT*dC*dA; antisense) [compound 18643],0.00%
4,18644 (DNA dC*dA*dG*dT*dG*dA*dA*dC*dT*dC*dT*dG*dT*dG*dC*dA*dG*dT; antisense) [compound 18644],5.30%
5,18645 (DNA dA*dT*dT*dC*dC*dG*dT*dT*dT*dC*dA*dG*dT*dG*dA*dA*dC*dT; antisense) [compound 18645],0.00%
6,18646 (DNA dG*dA*dA*dG*dG*dC*dA*dT*dT*dC*dC*dG*dT*dT*dT*dC*dA*dG; antisense) [compound 18646],9.00%
7,18647 (DNA dT*dT*dC*dA*dC*dC*dG*dC*dA*dA*dG*dG*dA*dA*dG*dG*dC*dA; antisense) [compound 18647],0.00%
8,18648 (DNA dC*dT*dC*dT*dG*dT*dT*dC*dC*dA*dG*dG*dT*dG*dT*dC*dT*dA; antisense) [compound 18648],0.00%
9,18649 (DNA dC*dT*dG*dG*dT*dG*dG*dC*dA*dG*dT*dG*dT*dG*dT*dC*dT*dC; antisense) [compound 18649],0.00%
10,18650 (DNA dT*dG*dG*dG*dG*dT*dC*dG*dC*dA*dG*dT*dA*dT*dT*dT*dG*dT; antisense) [compound 18650],0.00%
11,18651 (DNA dG*dG*dT*dT*dG*dG*dG*dG*dT*dC*dG*dC*dA*dG*dT*dA*dT*dT; antisense) [compound 18651],0.00%
12,18652 (DNA dC*dT*dA*dG*dG*dT*dT*dG*dG*dG*dG*dT*dC*dG*dC*dA*dG*dT; antisense) [compound 18652],0.00%
13,18653 (DNA dG*dG*dT*dG*dC*dC*dC*dT*dT*dC*dT*dG*dC*dT*dG*dG*dA*dC; antisense) [compound 18653],19.67%
14,18654 (DNA dC*dT*dG*dA*dG*dG*dT*dG*dC*dC*dC*dT*dT*dC*dT*dG*dC*dT; antisense) [compound 18654],15.63%
15,18655 (DNA dG*dT*dG*dT*dC*dT*dG*dT*dT*dT*dC*dT*dG*dA*dG*dG*dT*dG; antisense) [compound 18655],0.00%
16,18656 (DNA dT*dG*dG*dT*dG*dT*dC*dT*dG*dT*dT*dT*dC*dT*dG*dA*dG*dG; antisense) [compound 18656],0.00%
17,18657 (DNA dA*dC*dA*dG*dG*dT*dG*dC*dA*dG*dA*dT*dG*dG*dT*dG*dT*dC; antisense) [compound 18657],0.00%
18,18658 (DNA dT*dT*dC*dA*dC*dA*dG*dG*dT*dG*dC*dA*dG*dA*dT*dG*dG*dT; antisense) [compound 18658],0.00%
